Source: patent US9649389B2, “Substituted silaxanthenium red to near-infrared fluorochromes for in vitro and in vivo imaging and detection” (VisEn Medical, Inc., priority 2013, dated 2017)

Tests used:
KB cells = assay: Cell uptake of glucosamine conjugated SX compound by fluorescence microscopy and flow cytometry; assay type: cell-based; conditions: 30 μM, 30 minutes
Description: This example illustrates cell uptake of a biomolecule (glucosamine) conjugated SX compound, compound 67 in KB cells. KB cells were cultured in media for 2 h then incubated with 30 μM of compound 67 for 30 minutes before analysis of the cells by fluorescence microscopy and flow cytometry with appropriate filter sets for the two different fluorescent dyes. As a control, cells were also incubated with the commercial fluorescent glucosamine derivative 2-NBDG also at 30 μM.

[1] = Optical properties of silaxanthenium fluorochromes (absorption/emission maxima, relative brightness); assay type: physicochemical; conditions: for Abs. λmax / Em. Λmax: 1×PBS, 1 cm square cuvette; for Relative Fluorescence: brightness (fluorescence intensity / absorption at λmax) normalized to CY1, 1×PBS
Source text: The relative brightness is defined by the fluorescence intensity of a solution of the fluorochrome in a 1 cm square cuvette when excited at its wavelength of maximum absorption divided by the absorption of the same sample at the wavelength of maximum absorption. The three examples shown with a S atom in the X position of Formula II are red shifted about 20 nm relative to three examples with the S atom in the Y or Z positions.
This example summarizes in Table 3 the absorption and emission characteristics of some exemplary silaxanthenium (SX) fluorochromes relative to a cell impermeable cyanine dye (sulfonated Cy5 analog) CY1. Absorption and emission characteristics were measured in 1×PBS in a 1 cm square cuvette. Relative fluorescence (brightness) was measured as in Example 8 and normalized to that of compound CY1.

[2] = In vivo tomographic imaging (FMT 2500) after intravenous injection; conditions: 2 nmoles intravenous, SKH-1 E female mice
Description: Two SKH-1 E female mice (9 weeks old) were injected with 2 nmoles of compound 44. Tomographic images of the whole body of the mouse were taken at 1, 15, 30 and 45 minutes and 1, 2 and 3 hours.

4T1 cells = assay: Cellular uptake and washout by flow cytometry and fluorescence microscopy; assay type: cell-based; conditions: for cellular uptake: 1 uM, 30 min, 37° C.; for dye still remaining after washout: 1.5 h washout, flow cytometry
Description: (§1) Two isomeric thienyl Si-Rho dyes 88 and 89, were synthesized using the methods described previously. The two isomeric compounds, which are of identical molecular weight and molecular formula, have absorption and emission maxima of 652 nm and 668 nm (88) and 667 nm and 681 nm (89). Compounds were analyzed with two different filter sets by flow cytometry and also by fluorescence microscopy for cellular uptake and washout. Trypsin EDTA-detached 4T1 at 0.5 mil cells/mL culture medium were incubated with 1 uM 88 or 89 for 30 min at 37° C. Cells were washed 1× with PBS and analyzed by flow cytometry with a 705/70 nm emission filter for 88 and a 712/21 nm emission filter for 89 and by fluorescence microscopy.

[3] = Absorption and emission maxima of two isomeric thienyl dyes; assay type: physicochemical
Description: as §1

chymotrypsin = assay: Fluorescence activation of internally quenched probe upon protease cleavage; assay type: biochemical; conditions: 1×PBS, 37° C., 4 h
Source text: FIG. 6A illustrates fluorescence activation upon enzyme cleavage of an internally quenched pair of silaxanthenium fluorochromes separated by an enzyme cleavable peptide sequence (Compound 78). Compound 78 was synthesized by conjugating two carboxylic acid dyes to lysine side chain amines in the peptide sequence using HATU and triethylamine. The quenched probe was purified by HPLC. Absorbance and fluorescence, measured on a Cary 50 UV-vis spectrophotometer (Varian) and a Cary Eclipse fluorescence spectrophotometer, respectively, of the quenched (dashed lines) and activated (cleaved by chymotrypsin in 1×PBS, solid lines) fluorochromes are shown in FIG. 6B.
A 22-fold increase in fluorescence intensity was observed. […] Trypsin EDTA-detached 4T1 were seeded in a 6-well tissue culture plate at 0.5 mil cells/2 mL of culture medium were incubated with 1 or 5 uM of 92, 93, or 91 for 21 h at 37° C. Cells were washed 1× with PBS, detached, and analyzed by FC and FLM (Cy5 filter). […] Trypsin EDTA-detached 4T1 cells were implanted 1.5 mil/site approximately 1 week prior to imaging. 92 was injected retro-orbitally at 4 nmol and imaged by FMT at 5 and 24 h.

O=[N+]([O-])c1ccc(N[C@H]2C(O)O[C@H](CO)[C@@H](O)[C@@H]2O)c2nonc12 (stereo partly shown) [Compound 2-NBDG, reference compound]
cell uptake (KB cells): taken up by the cells
quantification of cell fluorescence by flow cytometry (KB cells): in normal analysis range

Cc1csc(C(=O)O)c1C1=C2C=CC(=[N+](C)C)C=C2[Si](C)(C)c2cc(N(C)C)ccc21 [Compound 17, 3,6-bis(dimethylamino)-9-(2-carboxy-4-methyl-thien-3-yl)-10,10-dimethyl-10-silaxanthenium chloride]
Abs. λmax [1]: 649 nm
Em. Λmax [1]: 666 nm
Relative Fluorescence [1]: 1.11

Cc1c(C2=C3C=CC(=[N+](C)C)C=C3[Si](C)(C)c3cc(N(C)C)ccc32)csc1C(=O)O [Compound 18, 3,6-bis(dimethylamino)-9-(2-carboxy-3-methyl-thien-4-yl)-10,10-dimethyl-10-silaxanthenium chloride]
Abs. λmax [1]: 653 nm
Em. Λmax [1]: 668 nm
Relative Fluorescence [1]: 1.02

Cc1cc(C(=O)O)ccc1C1=C2C=CC(=[N+]3CCCC3)C=C2[Si](C)(C)c2cc(N3CCCC3)ccc21 [Compound 44, 3,6-bis(pyrridolin-1-yl)-9-(2-methyl-4-carboxyphenyl)-10,10-dimethyl-10-silaxanthenium]
Abs. λmax [1]: 655 nm
Em. Λmax [1]: 669 nm
Relative Fluorescence [1]: 1.54
wash out of the untargeted compound [2]: ≤ 3 h
biodistribution by tomographic imaging ([2]; imaged 1 minute to 3 hours): Rapid accumulation of the fluorochrome compound can be seen in the heart region followed by slower accumulation to other areas of the body

Cc1cc(C(=O)O)ccc1C1=C2C=CC(=[N+]3CCOCC3)C=C2[Si](C)(C)c2cc(N3CCOCC3)ccc21 [Compound 45, 3,6-bis(morpholino)-9-(2-methyl-4-carboxyphenyl)-10,10-dimethyl-10-silaxanthenium]
Abs. λmax [1]: 651 nm
Em. Λmax [1]: 670 nm
Relative Fluorescence [1]: 0.75

CN(C)c1ccc2c(c1)[Si](C)(C)C1=CC(=[N+](C)C)C=CC1=C2c1ccc(C(=O)O)s1 [Compound 65, 3,6-bis(dimethylamino)-9-(2-carboxy-thien-5-yl)-10,10-dimethyl-10-silaxanthenium chloride]
Abs. λmax [1]: 669 nm
Em. Λmax [1]: 683 nm
Relative Fluorescence [1]: 0.05

Cc1c(C(=O)O)sc(C2=C3C=CC(=[N+](C)C)C=C3[Si](C)(C)c3cc(N(C)C)ccc32)c1Br [Compound 66]
red shift ([1]; relative to compound 17 (S moved from Z to X position, bromine substituent added)): 23 nm

Cc1cc(C(=O)N[C@@H]2[C@@H](O)[C@H](O)[C@@H](CO)O[C@@H]2O)ccc1C1=C2C=CC(=[N+]3CCCC3)C=C2[Si](C)(C)c2cc(N3CCCC3)ccc21 [Compound 67]
cell uptake (KB cells): taken up by the cells
quantification of cell fluorescence by flow cytometry (KB cells): detector saturation

Cc1ccccc1C1=C2C=CC(=[N+](C)C)C=C2[Si](C)(C)c2cc(N(C)C)ccc21 [Compound 77]
Abs. λmax [1]: 650 nm
Em. Λmax [1]: 666 nm
Relative Fluorescence [1]: 1.20

CN(C)c1ccc2c(c1)[Si](C)(C)c1cc(N(C)C)ccc1[C+]2c1ccsc1 [Compound 88]
cellular uptake (4T1 cells): Significant uptake
dye still remaining after washout (4T1 cells): approximately one third
absorption maximum [3]: 652 nm
emission maximum [3]: 668 nm

CN(C)c1ccc2c(c1)[Si](C)(C)c1cc(N(C)C)ccc1[C+]2c1cccs1 [Compound 89]
cellular uptake (4T1 cells): Significant uptake
dye still remaining after washout (4T1 cells): approximately one third
absorption maximum [3]: 667 nm
emission maximum [3]: 681 nm

CC(C)C[C@@H](NC(=O)[C@@H](Cc1ccccc1)NC(=O)CNC(=O)[C@@H](CCCCNC(=O)c1cc(C2=C3C=CC(=[N+](C)C)C=C3[Si](C)(C)c3cc(N(C)C)ccc32)c(C(=O)[O-])s1)NC(=O)CCC(=O)O)C(=O)NCC(=O)N[C@H](CCCCNC(=O)c1cc(C2=C3C=CC(=[N+](C)C)C=C3[Si](C)(C)c3cc(N(C)C)ccc32)c(C(=O)[O-])s1)C(N)=O [Compound 91]
increase in fluorescence intensity (chymotrypsin): 22 fold
